According to ChEMBL document CHEMBL6153160, “Novel 3-Cycloaminoindole Compounds as Serotonergic Psychedelic Agents for Treating Psychosis, Mental Illness, and CNS Disorders” (ACS Med Chem Lett, 2025):

Biological target: 5-hydroxytryptamine receptor 2A (Homo sapiens, UniProt P28223)
Experiment: Displacement of [3H]-ketanserin from human 5-HT2A receptor incubated for 90 mins by microbeta2 microplate counter assay

Sequence of 5-hydroxytryptamine receptor 2A (P28223 whole entry): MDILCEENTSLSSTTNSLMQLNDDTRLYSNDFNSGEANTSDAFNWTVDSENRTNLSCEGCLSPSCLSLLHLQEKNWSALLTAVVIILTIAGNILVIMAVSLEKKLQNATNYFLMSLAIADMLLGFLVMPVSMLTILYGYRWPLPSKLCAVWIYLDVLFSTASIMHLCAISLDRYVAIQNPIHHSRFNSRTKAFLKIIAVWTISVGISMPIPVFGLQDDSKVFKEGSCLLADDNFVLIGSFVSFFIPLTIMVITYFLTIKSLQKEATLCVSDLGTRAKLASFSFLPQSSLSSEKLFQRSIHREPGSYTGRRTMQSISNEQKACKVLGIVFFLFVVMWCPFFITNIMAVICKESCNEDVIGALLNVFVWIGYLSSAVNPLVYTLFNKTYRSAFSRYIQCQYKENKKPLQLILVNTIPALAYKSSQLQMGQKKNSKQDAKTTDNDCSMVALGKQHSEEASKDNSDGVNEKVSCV

[2H]c1[nH]c2c([2H])c([2H])c([2H])c([2H])c2c1C1CCN(C)C1 (stereo not drawn)
IC50: < 500 nM

CN(C)CCc1c[nH]c2ccccc12
IC50: < 500 nM

[2H]c1[nH]c2c([2H])c([2H])c([2H])c([2H])c2c1C1CC([2H])([2H])N(C)C1([2H])[2H] (stereo not drawn)
IC50: < 500 nM
